Measurements reported in PMC6680510, “Benzotriazine Di-Oxide Prodrugs for Exploiting Hypoxia and Low Extracellular pH in Tumors” (Molecules, 2019).
Several values for one entry are separate records, joined by “and”; a condition that tells them apart may be missing. Equal entries are not always repeated.

Key:
SiHa and SiHa/POR cells = test: IC50 in SiHa versus SiHa/POR cultures under anoxia; assay type: cell-based; conditions: 4 h under anoxia, pHe 7.4
Protocol: The lack of effect of POR over-expression on the reductive metabolism of the BTO acids in intact cells led us to compare the cytotoxicities of SN30000 (2), 4a, and 7a in SiHa/POR, and the parental line, under anoxia (Figure 6).
Drug exposure was for 4 h under anoxia, at pHe 7.4, with regrowth under aerobic conditions for 5 days before staining with SRB. Values are means and SEM for the two experiments, each with triplicate cultures at each drug concentration. TEXT PRINTED IN THE PICTURE: Cmpd 2: Ratio 6.75 ± 0.20 | Cmpd 4a: Ratio 3.40 ± 0.22 | Cmpd 7a: Ratio 2.67 ± 0.46

SiHa cells = test: Metabolism and uptake of ester 4b in anoxic single cell suspensions; assay type: in vitro ADME; conditions: anoxic SiHa suspensions after addition of 4b (150 μM), at 30 min
Description: If the anionic sidechain of the BTO acids results in low intracellular concentrations, with reductive metabolism occurring largely at the cell surface, the corresponding esters would be expected to provide improved delivery to the intracellular compartment (consistent with their higher cytotoxic potencies, as noted in Section 2.5). To test this, we compared the metabolism of ester 4b (Figure 7A) with its corresponding acid 4a (Figure 7B) by monitoring extracellular concentrations in anoxic SiHa suspensions. The rates of metabolism of both compounds were unaffected by pHe, consistent with the results for 4a in Figure 5B. The ester was metabolized more rapidly than the acid, with only a trace of acid 4a detected transiently as an extracellular metabolite (Figure 7A). The major metabolites were the less polar 1-oxide, 15a, and the 1-oxide of the ester, 16a. In separate experiments with higher initial concentrations of 4b, 15a was again the main extracellular metabolite (Figure 7C, left). […] Compound 4b itself was not detected in the intracellular samples, presumably reflecting a lack of retention in cells and the very low intracellular volume, which will compromise analytical sensitivity (only 2 × 10^6 cells were collected for each analysis in this experiment).
Figure 7 Metabolism of BTO ester 4b and the corresponding acid 4a by anoxic SiHa single cell suspensions (2 × 10^6 cells/mL). (A) Extracellular concentrations following the addition of 4b (50 μM). (B) Extracellular concentrations following the addition of 4a (50 μM). (C) Extracellular (left) and intracellular (right) concentrations following the addition of 4b (150 μM). Values are means and errors are SEM for 3 replicate cultures.

- IC50 ratio SiHa / SiHa/POR (fold lower IC50 in POR cell line) (SiHa and SiHa/POR cells): 3.40 ± 0.22 and 3.4
- Maximum intracellular concentration (SiHa cells): 4.1 mM
SMILES: O=C(O)CCc1n[n+]([O-])c2ccccc2[n+]1[O-] [Compound 4a, 3-(2-Carboxyethyl)benzo[e][1,2,4]triazine 1,4-Dioxide]
